Each compound was assayed against T1, 3-oxo-5-alpha-steroid 4-dehydrogenase 1 (Homo sapiens, UniProt P18405) (assay: In vitro inhibitory concentration required to inhibit Steroid 5-alpha-reductase type 1 in cultured Hs 68 human foreskin fibroblast cells). Details: read-out: Log 1/IC50 (converted).
T1 sequence (P18405 whole entry): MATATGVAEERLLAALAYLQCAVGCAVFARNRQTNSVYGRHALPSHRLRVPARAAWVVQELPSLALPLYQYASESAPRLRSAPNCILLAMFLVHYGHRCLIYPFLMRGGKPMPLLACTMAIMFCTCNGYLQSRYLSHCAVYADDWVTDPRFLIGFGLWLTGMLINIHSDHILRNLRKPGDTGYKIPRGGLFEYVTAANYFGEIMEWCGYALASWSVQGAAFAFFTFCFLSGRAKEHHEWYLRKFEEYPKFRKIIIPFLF
Format: cell-based

Row | SMILES | IC50 [nM]
1 | CN1C(=O)CCC2(C)c3ccc(Cl)cc3CCC12 (stereo unspecified) | 32.4
2 | CN1C(=O)CCC2c3ccc(F)cc3CCC21 (stereo unspecified) | 34.7
3 | CN1C(=O)CCC2=C1CCc1cc(F)ccc12 | 151
4 | Cc1ccc2c(c1)CCC1=C2CCC(=O)N1C | 32.4
5 | CN1C(=O)CCC2c3ccc(Cl)cc3CCC21 (stereo unspecified) | 7.94
6 | CN1C(=O)CCC2c3ccccc3CCC21 (stereo unspecified) | 562
7 | CN1C(=O)CCC2=C1CCc1cc(Cl)ccc12 | 174
8 | CN1C(=O)CCC2=C1CCc1cc(Br)ccc12 | 60.3
9 | CN1C(=O)CCC2=C1CCc1ccccc12 | 1000
10 | CN1C(=O)CCC2(C)c3ccccc3CCC12 (stereo unspecified) | 1000
11 | COc1ccc2c(c1)CCC1C2CCC(=O)N1C (stereo unspecified) | 115
12 | CN1C(=O)CCC2c3ccc(I)cc3CCC21 (stereo unspecified) | 79.4
13 | CN1C(=O)CCC2(C)c3ccc(F)cc3CCC12 (stereo unspecified) | 115
14 | CN1C(=O)CCC2c3ccc(C(F)(F)F)cc3CCC21 (stereo unspecified) | 89.1
15 | Cc1ccc2c(c1)CCC1C2CCC(=O)N1C (stereo unspecified) | 32.4
16 | CN1C(=O)CCC2c3ccc(Br)cc3CCC21 (stereo unspecified) | 34.7

From ChEMBL document CHEMBL1127006, “QSAR study of benzoquinolinones as inhibitors of human type 1 5--reductase” (Bioorg Med Chem Lett, 1993)
